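Each compound was tested at five concentrations against cells in 96-well plates for 48 hours. TGI marks complete inhibition of growth.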
How the values were obtained:
Test in all cases: DTP human tumour cell line panel, 48 h
DLD-1 colon = tested on: DLD-1 colon
HOP-18 NSCLC = tested on: HOP-18 NSCLC
LXFL 529 NSCLC = tested on: LXFL 529 NSCLC
DMS 114 small cell lung = tested on: DMS 114 small cell lung
M19-MEL melanoma = tested on: M19-MEL melanoma
SNB-78 CNS = tested on: SNB-78 CNS
KM20L2 colon = tested on: KM20L2 colon
XF 498 CNS = tested on: XF 498 CNS
RXF-631 renal = tested on: RXF-631 renal

COc1cccc(NC(=S)Nn2c(C)nc3ccccc3c2=O)c1
TGI (DLD-1 colon): > 100 µM
TGI (HOP-18 NSCLC): > 100 µM
TGI (LXFL 529 NSCLC): > 100 µM
TGI (DMS 114 small cell lung): > 100 µM
TGI (M19-MEL melanoma): > 100 µM

CC(C)(C)NN=C1C(C)(C)C(=NNC(C)(C)C)C1(C)C
TGI (SNB-78 CNS): > 100 µM
TGI (DLD-1 colon): > 100 µM
TGI (LXFL 529 NSCLC): > 100 µM
TGI (DMS 114 small cell lung): > 100 µM
TGI (KM20L2 colon): > 100 µM
TGI (XF 498 CNS): > 100 µM
TGI (M19-MEL melanoma): > 100 µM

CCCCc1c2c(nc3c1CCCC3O)/C(=C/c1ccccc1)CCC2 (configuration not stated)
TGI (SNB-78 CNS): > 100 µM
TGI (HOP-18 NSCLC): 89.5 µM
TGI (LXFL 529 NSCLC): > 100 µM
TGI (DMS 114 small cell lung): 53.1 µM
TGI (KM20L2 colon): 75.1 µM
TGI (XF 498 CNS): 28.2 µM
TGI (M19-MEL melanoma): 57.1 µM

Clc1ccc(SCCSCCCCCCCCCCSCCSc2ccc(Cl)cc2)cc1
TGI (SNB-78 CNS): > 100 µM
TGI (DLD-1 colon): > 100 µM
TGI (HOP-18 NSCLC): > 100 µM
TGI (DMS 114 small cell lung): > 100 µM
TGI (KM20L2 colon): > 100 µM
TGI (RXF-631 renal): > 100 µM

CCCC/C=C/C1Cc2ccccc2CN1S(=O)(=O)c1ccc(C)cc1 (configuration not stated)
TGI (DLD-1 colon): 32.9 µM
TGI (HOP-18 NSCLC): > 100 µM
TGI (LXFL 529 NSCLC): 22.1 µM
TGI (DMS 114 small cell lung): 12.2 µM
TGI (KM20L2 colon): 26.2 µM
TGI (RXF-631 renal): 20.9 µM
TGI (XF 498 CNS): 78.1 µM
TGI (M19-MEL melanoma): 18.8 µM

CC(=O)O/N=C/c1ncccc1OC(C)=O
TGI (DLD-1 colon): > 100 µM
TGI (HOP-18 NSCLC): > 100 µM
TGI (LXFL 529 NSCLC): > 100 µM
TGI (DMS 114 small cell lung): > 100 µM
TGI (KM20L2 colon): > 100 µM
TGI (RXF-631 renal): > 100 µM
TGI (XF 498 CNS): > 100 µM
TGI (M19-MEL melanoma): > 100 µM

CCOC(=O)C(=O)Nc1c(F)cc(F)cc1Br
TGI (SNB-78 CNS): > 100 µM
TGI (DLD-1 colon): > 100 µM
TGI (LXFL 529 NSCLC): > 100 µM
TGI (DMS 114 small cell lung): > 100 µM
TGI (KM20L2 colon): > 100 µM
TGI (XF 498 CNS): > 100 µM
TGI (M19-MEL melanoma): > 100 µM

CCCn1c(SCC)c2ccccc2c1-c1nc(F)nc(F)n1
TGI (SNB-78 CNS): > 100 µM
TGI (LXFL 529 NSCLC): > 100 µM
TGI (DMS 114 small cell lung): > 100 µM
TGI (KM20L2 colon): > 100 µM
TGI (RXF-631 renal): > 100 µM
TGI (XF 498 CNS): > 100 µM
TGI (M19-MEL melanoma): > 100 µM

COC(=O)C1=C(C(=O)OC)C2(OC(C)=O)c3ccccc3-c3ccccc3C12 (configuration not stated)
TGI (SNB-78 CNS): 10.8 µM
TGI (DLD-1 colon): 3.28 µM
TGI (HOP-18 NSCLC): 9.5 µM
TGI (LXFL 529 NSCLC): 3.38 µM
TGI (DMS 114 small cell lung): 9.89 µM
TGI (KM20L2 colon): 12.8 µM
TGI (XF 498 CNS): 26.1 µM
TGI (M19-MEL melanoma): 8.79 µM

CSC(C1c2ccccc2N(C)C2=NC(=O)N(C)C(=O)C21Cl)S(=O)(=O)c1ccc(C)cc1 (configuration not stated)
TGI (SNB-78 CNS): > 100 µM
TGI (DLD-1 colon): > 100 µM
TGI (HOP-18 NSCLC): > 100 µM
TGI (LXFL 529 NSCLC): 57.7 µM
TGI (DMS 114 small cell lung): > 100 µM
TGI (KM20L2 colon): > 100 µM
TGI (RXF-631 renal): > 100 µM
TGI (XF 498 CNS): > 100 µM
TGI (M19-MEL melanoma): > 100 µM

CC(C)(C)c1nc2c(o1)C(=O)c1ccccc1C2=O
TGI (SNB-78 CNS): 39.1 µM
TGI (DLD-1 colon): 14.5 µM
TGI (HOP-18 NSCLC): 18.9 µM
TGI (LXFL 529 NSCLC): 18.1 µM
TGI (DMS 114 small cell lung): 5.89 µM
TGI (KM20L2 colon): 48.2 µM
TGI (RXF-631 renal): 14.9 µM
TGI (XF 498 CNS): 7.15 µM
TGI (M19-MEL melanoma): 2.84 µM

Nc1nc(SCCNC(=O)CCc2ccc(O)cc2)nc2c1ncn2C1OC(CO)C(O)C1O (configuration not stated)
TGI (SNB-78 CNS): > 203 µM
TGI (DLD-1 colon): > 203 µM
TGI (HOP-18 NSCLC): > 203 µM
TGI (DMS 114 small cell lung): > 203 µM
TGI (KM20L2 colon): > 203 µM
TGI (XF 498 CNS): > 203 µM
TGI (M19-MEL melanoma): > 203 µM

CCCN(CCCC(NC(C)=O)C(=O)NCc1ccccc1)C(=O)NC (configuration not stated)
TGI (SNB-78 CNS): > 100 µM
TGI (DLD-1 colon): > 100 µM
TGI (LXFL 529 NSCLC): > 100 µM
TGI (DMS 114 small cell lung): > 100 µM
TGI (KM20L2 colon): > 100 µM
TGI (RXF-631 renal): > 100 µM
TGI (M19-MEL melanoma): > 100 µM

COC1=CC(=O)[C@H]2[C@H](C)C(c3ccccc3)[C@@]2(C)C1=O (some centres not stated)
TGI (SNB-78 CNS): > 100 µM
TGI (DLD-1 colon): > 100 µM
TGI (LXFL 529 NSCLC): > 100 µM
TGI (XF 498 CNS): > 100 µM
TGI (M19-MEL melanoma): > 100 µM

N#Cc1c(-c2ccco2)cc(-c2ccc(NCc3nc4ccccc4[nH]3)cc2)nc1N
TGI (DLD-1 colon): > 100 µM
TGI (HOP-18 NSCLC): 77.9 µM
TGI (LXFL 529 NSCLC): 42 µM
TGI (M19-MEL melanoma): 63.4 µM

NC(=O)N1N=C2c3ccccc3CC[C@@H]2C1c1ccccc1 (some centres not stated)
TGI (SNB-78 CNS): > 100 µM
TGI (DLD-1 colon): > 100 µM
TGI (LXFL 529 NSCLC): > 100 µM
TGI (DMS 114 small cell lung): > 100 µM
TGI (KM20L2 colon): > 100 µM
TGI (M19-MEL melanoma): > 100 µM

COC(=O)C(CCCC1(c2ccccc2)OCCO1)C(C)=O (configuration not stated)
TGI (SNB-78 CNS): > 100 µM
TGI (DLD-1 colon): > 100 µM
TGI (HOP-18 NSCLC): > 100 µM
TGI (LXFL 529 NSCLC): > 100 µM
TGI (KM20L2 colon): > 100 µM
TGI (RXF-631 renal): > 100 µM
TGI (XF 498 CNS): > 100 µM
TGI (M19-MEL melanoma): > 100 µM

COc1ccc(/C(=N/NC(=O)NN)C(c2ccc(OC)cc2)C2(O)CNc3c(Cl)cc(Cl)cc32)cc1 (configuration not stated)
TGI (SNB-78 CNS): > 100 µM
TGI (DLD-1 colon): > 100 µM
TGI (HOP-18 NSCLC): > 100 µM
TGI (LXFL 529 NSCLC): > 100 µM
TGI (DMS 114 small cell lung): > 100 µM
TGI (KM20L2 colon): > 100 µM
TGI (RXF-631 renal): > 100 µM
TGI (M19-MEL melanoma): > 100 µM

COc1cc2c(c(C)c1O)[C@H]1COc3ccccc3[C@H]1O2
TGI (SNB-78 CNS): 80.7 µM
TGI (DLD-1 colon): > 100 µM
TGI (HOP-18 NSCLC): 35.6 µM
TGI (LXFL 529 NSCLC): 31.1 µM
TGI (DMS 114 small cell lung): 47.6 µM
TGI (KM20L2 colon): 63.9 µM
TGI (RXF-631 renal): 29.8 µM
TGI (M19-MEL melanoma): 25 µM

COC(OC)c1cccc2c1C(=O)CCC1(O)c3ccccc3C1C2 (configuration not stated)
TGI (SNB-78 CNS): > 100 µM
TGI (DLD-1 colon): > 100 µM
TGI (HOP-18 NSCLC): > 100 µM
TGI (LXFL 529 NSCLC): > 100 µM
TGI (DMS 114 small cell lung): > 100 µM
TGI (XF 498 CNS): > 100 µM
TGI (M19-MEL melanoma): > 100 µM

Cc1cc(N(CCC#N)S(C)(=O)=O)ccc1C=O
TGI (SNB-78 CNS): > 100 µM
TGI (DLD-1 colon): > 100 µM
TGI (HOP-18 NSCLC): > 100 µM
TGI (LXFL 529 NSCLC): > 100 µM
TGI (DMS 114 small cell lung): > 100 µM
TGI (KM20L2 colon): > 100 µM

From PubChem BioAssay (NCI)
